{
  "source": "patent US20140357688A1",
  "about": "“METHOD FOR INHIBITING EZH2 EXPRESSION IN BREAST CANCER CELLS” (Yung Shin Pharm. Ind. Co., Ltd., priority 2013, published 2014)",
  "test_system": "EGFR",
  "assay": "Western blot of EGFR phosphorylation and expression",
  "type": "cell-based, human",
  "protocol": "Cells were incubated with 3 μM YC-1 for indicated time. Cells were harvested and subjected to western blot analysis for the detection of protein expression. Cells were lysed in PBS containing proteinase inhibitor and phosphatase inhibitors and sonication. Protein concentration was measured using the Bio-Rad protein assay kit (Bio-Rad Laboratories, Hercules, Calif., USA). Lysate protein was separated by electrophoresis of SDS-PAGE and transferred to Immobilon P membrane (EMD Millipore). The membranes were incubated with appropriate primary antibodies and horseradish peroxidase-conjugated secondary antibodies (EMD Millipore). The signaling was visualized using Chemiluminescence substrate kit (EMD Millipore) and collected by the Luminesence image analyzer, LAS4000 (Fuji Photo Film Co., Tokyo, Japan). The band intensities were analyzed and quantified by the Multi Gauge software (Fuji Photo Film).",
  "data": [
    {"smiles": "OCc1ccc(-c2nn(Cc3ccccc3)c3ccccc23)o1", "note": "[YC-1, 3-(5′-hydroxymethyl-2′-furyl)-1-benzyl indazole]", "values": [
      {"measurement": "EGFR phosphorylation", "setting": "3 μM YC-1", "result": "rapidly induced EGFR phosphorylation"},
      {"measurement": "EGFR protein expression", "setting": "3 μM YC-1, after 6 h treatment", "result": "significant decrease"}
    ]}
  ]
}
